Assay results taken from patent US5831055A, “DNA encoding a novel kidney ATP-dependent potassium channels” (Pharmacia & Upjohn Company, priority 1996, dated 1998).

How the values were obtained:
[1] = target: T1, KIRK 2 channel (Homo sapiens, UniProt P78508); test: Two-microelectrode voltage-clamp of Xenopus oocytes injected with KIRK 2 cRNA; format: cell-based; settings: for inhibition of KIRK 2 current: Xenopus oocytes expressing KIRK 2, Ba^2+ applied at 0.03 μM to 10 mM (n=8), Cs^+ n=6, data not shown
T1 construct: primers that flank the open-reading frame of KIRK-2 were used to PCR amplify this region of the genomic clone; expressed in transfected cells; host or cells: Xenopus laevis oocytes injected with polyadenylated KIRK 2 cRNA (from pSPORT/KIRK-2)
T1 sequence (P78508 1-379): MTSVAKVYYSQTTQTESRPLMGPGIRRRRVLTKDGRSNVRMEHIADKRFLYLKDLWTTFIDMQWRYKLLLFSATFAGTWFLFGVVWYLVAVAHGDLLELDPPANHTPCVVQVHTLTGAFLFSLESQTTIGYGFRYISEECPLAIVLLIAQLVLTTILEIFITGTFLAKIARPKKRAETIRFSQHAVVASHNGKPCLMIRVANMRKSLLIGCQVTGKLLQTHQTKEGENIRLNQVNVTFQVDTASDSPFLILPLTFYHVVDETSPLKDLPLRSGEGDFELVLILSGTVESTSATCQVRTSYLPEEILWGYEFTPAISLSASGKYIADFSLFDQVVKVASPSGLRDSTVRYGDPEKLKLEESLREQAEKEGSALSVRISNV
Protocol: Oocytes were collected under tricaine (3-aminobenzoic acid ethyl ester, 0.17%; Sigma, St. Louis, Mo.) and cold-induced anesthesia from adult African clawed frogs, Xenopus laevis (Nasco, Ft. Atkinson, Wis.), and defolliculated by blunt dissection in Ca^2+ free ND-96 following 40 minutes incubation in 2 mg/ml collagenase (Type II; Sigma, St. Louis, Mo.). ND-96 consisted of 96 mM NaCl, 2 mM KCl, 1 mM MgCl2, 0.3 mM CaCl2, 5 mM HEPES, pH 7.6.The following day, a glass injection pipette manually broken to ~15 μm tip diameter was used to inject oocytes with […] of polyadenylated cRNA dissolved in water at 15, 30 or 100 ng/μl resulting in injection of 0.6, 1.2, or 4 ng of cRNA. Prior to recordings, oocytes were maintained 2-7 days at 20° C. in ND-96 supplemented with gentamycin ([…]; Bio-Whittaker, Walkersville, Md.) and sodium-pyruvate (2.5 mM; Sigma).
Electrophysiological recordings were conducted at room temperature. Oocyte resting membrane potential was measured in ND-96 using 30-80 M.OMEGA. glass microelectrodes filled with 3M KCl For two-microelectrode voltage-clamp recordings, the voltage-measuring pipette had resistances of 1.5 to 2.0 M.OMEGA., while the current-injection pipette had resistances of 0.7-0.9 M.OMEGA.; both pipettes were filled with 3M KCl. All voltage-clamp recordings were conducted in bath solutions containing 1 mM MgCl2, 0.3 mM CaCl2, and 5 mM HEPES. For experiments conducted in 50 mM K^+, the solution contained 50 mM KCl and 50 mM NaCl. For lower potassium concentrations, this solution was mixed with an identical solution in which choline was substituted for potassium. Pairs of solutions at pH 5.4 and 8.4, containing 50 mM KCl and either 50 mM potassium-acetate or 50 mM potassium-hydrogen phthalate (biphthalate; Sigma, St. Louis, Mo.) were mixed to vary pH.
Two-microelectrode, voltage-clamp recordings were conducted using the GeneClamp 500 (Axon Instruments, La Jolla, Calif.) interfaced with a 486 Computer running the PCLAMP 6.0 (Axon Instruments, La Jolla, Calif.) suite of programs. Currents were filtered at 2 kHz and sampled every 100 μs. Current amplitude was measured during the last 4 ms of a 400 ms test pulse. Data were analyzed and plotted using PCLAMP 6.0 and SIGMA PLOT 5.0 (Jandel Scientific, San Rafael, Calif.). Statistical significance was determined by the Student's T-test.

[2] = target: KIRK 1 (ROMK channel)

Row | Compound | fraction of the transmembrane electric field sensed by the binding site (Woodhull equation fit of Ki versus membrane potential) ([1]; Ki values at holding potentials -120, -80 and -40 mV) [%] | inhibition of KIRK 2 current [1] | Hill coefficient of logistic fit of concentration-dependence of KIRK 2 inhibition ([1]; three holding potentials (-120, -80, -40 mV), n=8) | effectiveness of block of KIRK 2 compared with Ba^2+ ([1]; apparent only at the most negative potentials tested, n=6, data not shown) | whole-cell current at a holding potential of -160 mV in Xenopus oocytes, two-microelectrode voltage clamp [2] [%]
1 | [Ba+2] [Ba^2+] | 46 | reversible, concentrationdependent inhibition | 2 |  | 
2 | [Cs+] [Cs^+] |  | reversible and voltage-dependent |  | far less effective than block by Ba^2+ | 
3 | KIRK-3 (human kidney inward rectifier K channel 3) |  |  |  |  | 54
